Results published in paper PMC6848382, “Characterization of the Bioactivity and Mechanism of Bactenecin Derivatives Against Food-Pathogens” (Frontiers in Microbiology, 2019).
No end group written: not given here.

Columns and labels:
[1] = system: Staphylococcus aureus CMCC26074; format: cell-based; settings: CMCC26074, 24 h
Protocol: (§1) The antimicrobial activity of each peptide against food-pathogens was characterized by the minimum inhibitory concentration (MIC) ([Ma et al., 2013]). A logarithmic growth-phase culture of bacteria (1 × 10^6 CFU/mL) was mixed with peptide solutions (final concentration ranging from 0 μM to 256 μM) in 96-well plates. After the 96-well plates were incubated for 24 h at 37°C, optical dispersion (OD) was measured using a microplate reader (Bio-Rad, ıHercules, CA, United States) at 630 nm. […] The broth with bacteria cells was used as the negative control, and un-inoculated broth was used as a positive control. The tests were performed in triplicate using three replicates for each experiment.

[2] = system: Cronobacter sakazakii ATCC29544; format: cell-based; settings: ATCC29544, 24 h
Protocol: as §1

[3] = system: Listeria monocytogenes CMCC54004; format: cell-based; settings: CMCC54004, 24 h
Protocol: as §1

[4] = system: 12 typical food-pathogens; settings: over the 12 food-pathogens of Table 3
Protocol: as §1
The selectivity index (SI), calculated as the ratio of MHC to GM, was used a comparison parameter for the safety and efficacy of peptides.

[5] = system: Escherichia coli ATCC25922; format: cell-based
Protocol: To evaluate the effect of different physiological conditions on the stability of peptides, we determined the salt stability, thermal stability, and enzymatic stability as described in a previous study ([Dong, 2013]; [Sun et al., 2018]). Escherichia coli ATCC25922 grown in the logarithmic phase (1 × 10^6 CFU/mL) was exposed to each peptide at different salt concentrations (150 mM NaCl, 4.5 mM KCl, 6 μM NH4Cl, 1 mM MgCl2, 8 μM ZnCl2, 2 mM CaCl2, and 4 μM FeCl3). The peptides were treated for 1 h at 100°C to test for thermal stability. The peptides were treated with trypsin, pepsin, papain and protease k at a concentration of 1 mg/mL for 1 h at 37°C to test for enzyme stability. The control group consisted of untreated peptides. The subsequent assay was consistent with the MIC assay.

[6] = system: Salmonella typhimurium ATCC14028; format: cell-based; settings: ATCC14028, 24 h
Protocol: as §1

[7] = system: Salmonella enteric-subspenterica CMCC47020; settings: 1 × 10^6 CFU/mL, 24 h, 37°C, triplicate
Protocol: as §1

[8] = system: Escherichia coli ATCC25922; format: cell-based; settings: ATCC25922, 24 h
Protocol: as §1

EA. hy 926 cells = experiment: Cytotoxicity (CCK-8); format: cell-based, human; settings: CCK-8, 24 h; peptide concentration 128 μM
Protocol: The cytotoxicity of the peptides was tested on the EA. hy 926 cell line by using the Cell Counting Kit-8 (CCK-8, Dojindo, Japan) as described in a previous study ([Sánchez-Gómez et al., 2015]). The EA. Hy 926 cells cultured in the logarithmic growth -phase was then diluted with PBS to a single cell suspension. A 100 μL cell suspension (2 × 10^5 cells) was added to 96-well plates and cultured in an incubator with a 5% CO2 atmosphere at 37°C. The cell culture medium was removed, and the two-fold serial dilutions of peptides prepared using DMEM with 5% FBS were added to the 96-well plates. After 24 h, 100 μL DMEM with 10% CCK-8 was added to the 96-well plates and then cultured for 4 h. The absorbance was measured at 492 nm by using a microplate reader. DMEM served as a positive control and cells mixed with DMEM without peptides as a negative control. Melittin was employed as a control peptide.

[9] = system: Salmonella enteric-subspenterica CMCC50071; settings: 1 × 10^6 CFU/mL, 24 h, 37°C, triplicate
Protocol: as §1

Bacillus cereus CMCC6303 = format: cell-based; settings: CMCC6303, 24 h
Protocol: as §1

[10] = system: Salmonella typhimurium C77-31; format: cell-based; settings: murium C77-31, 24 h
Protocol: as §1

[11] = system: Salmonella pullorum C79-13; format: cell-based; settings: 24 h
Protocol: as §1

Escherichia coli UB1005 = format: cell-based; settings: UB1005, 24 h
Protocol: as §1

[12] = system: Staphylococcus aureus ATCC25923; format: cell-based; settings: ATCC25923, 24 h
Protocol: as §1

RWRRIVVIRVRR-NH2 [W2R3V10R11]
MIC [1]: 64 µM
MIC [2]: 16 µM
MIC [3]: 2 µM
GM (geometric mean of MICs) [4]: 24.0 µM
MIC, Heat ([5]; ATCC25922, 1 h): 4 µM
MIC, Papain ([5]; ATCC25922, 1 h): 2 µM
MIC, Pepsin ([5]; ATCC25922, 1 h): 32 µM
MIC, Proteinase k ([5]; ATCC25922, 1 h): 8 µM
MIC, Trypsin ([5]; ATCC25922, 1 h): >256 µM
MIC, CaCl2 ([5]; ATCC25922, 24 h): 8 µM
MIC, Control ([5]; ATCC25922, 24 h): 2 µM
MIC, KCl ([5]; ATCC25922, 24 h): 2 µM
MIC, MgCl2 ([5]; ATCC25922, 24 h): 4 µM
MIC, NH4Cl ([5]; ATCC25922, 24 h): 2 µM
MIC, NaCl ([5]; ATCC25922, 24 h): 4 µM
MIC [6]: 32 µM
MIC [7]: 128 µM
MIC [8]: 2 µM
EA. hy 926 cell viability (EA. hy 926 cells): 80%
MIC [9]: 8 µM
MIC (Bacillus cereus CMCC6303): 64 µM
MIC [10]: 32 µM
MIC [11]: 32 µM
MIC (Escherichia coli UB1005): 16 µM
MIC [12]: 256 µM
